Experimental data published in US20050232911A1, “Prevention and treatment of metabolic abnormalities associated with excess intramyocellular lipid” (priority 2004, published 2005).

Assays:
whole animal models = conditions: cited from earlier work
obese Zucker rats [1] = test: Intramyocellular lipid content (oil red O staining of adductor magnus muscle) after chronic levocarnitine; type: in vivo, rat; conditions: obese Zucker rats with metabolic syndrome; chronic administration, 100 mg/kg bodyweight daily in drinking water or food
Experimental: Forty-five male obese Zucker rats are obtained at 5 weeks of age (Charles is River) and randomized into three groups of 15 each. Namely, the forty-five male obese Zucker rats are randomized into Control Group A, Control Group B, and L-Carn Group, which each consists of 15 rats. Control Group A and Control Group B receive normal rat chow throughout the study. The 15 Zucker rats in L-Carn Group receive 100 mg/kg bodyweight (BWt) of levocarnitine, daily, in their drinking water or mixed with their food. […] After determining insulin sensitivity, the adductor magnus muscle of the left hind leg is isolated and the anterior and posterior ends tied with 3-O silk and cut outside the ties. The muscle is placed across a wooden stick, slightly wider than the muscle section is long, and tied in place to preserve its normal amount of stretch, then immediately immersed in isopentane cooled in liquid nitrogen. […] The lipid content of the sections is determined by using histochemical staining. One such suitable histochemical staining process includes using lipid-soluble dye to dye respective sections of tissue which are then observed and/or other wise analyzed. […] Ones of the three muscle fiber types are examined and lipid concentrations are determined respectively, pursuant to techniques and methods well known to those skilled in the art. […]

obese Zucker rats [2] = test: Insulin sensitivity by euglycemic-hyperinsulinemic clamp technique; type: in vivo, rat; conditions: chronic administration
Experimental: Forty-five male obese Zucker rats are obtained at 5 weeks of age (Charles is River) and randomized into three groups of 15 each. Namely, the forty-five male obese Zucker rats are randomized into Control Group A, Control Group B, and L-Carn Group, which each consists of 15 rats. Control Group A and Control Group B receive normal rat chow throughout the study. The 15 Zucker rats in L-Carn Group receive 100 mg/kg bodyweight (BWt) of levocarnitine, daily, in their drinking water or mixed with their food. At 6 weeks of age, all groups are placed in metabolic cages for 24-hours to determine baseline protein and creatinine excretion rates, whereby proteinuria can be determined. […] At 6 weeks of age, the Zucker rats of Control Group A are anesthetized with sodium pentobarbital (50-60 mg/kg BWt intraperitoneally) and insulin sensitivity is determined using the euglycemic-hyperinsulinemic clamp technique, explained elsewhere herein. […] Blood glucose is determined every 15 minutes over a 120 minute baseline period. […] Blood glucose is analyzed every 5 minutes from a catheter in the femoral artery using a glucometer (Freestyle®, test volume required=0.3 μL) and the rate of D-glucose infused is adjusted to maintain plasma glucose at ˜5 mol/L. Whole body insulin sensitivity is calculated at the mean glucose infusion rate during the last 60 minutes of the euglycemic-hyperinsulinemic clamp study. […]

obese Zucker rats [3] = test: Renal histology / kidney injury; type: in vivo, rat; conditions: chronic administration, secondary benefit
Experimental: Forty-five male obese Zucker rats are obtained at 5 weeks of age (Charles is River) and randomized into three groups of 15 each. Namely, the forty-five male obese Zucker rats are randomized into Control Group A, Control Group B, and L-Carn Group, which each consists of 15 rats. Control Group A and Control Group B receive normal rat chow throughout the study. The 15 Zucker rats in L-Carn Group receive 100 mg/kg bodyweight (BWt) of levocarnitine, daily, in their drinking water or mixed with their food. At 6 weeks of age, all groups are placed in metabolic cages for 24-hours to determine baseline protein and creatinine excretion rates, whereby proteinuria can be determined. Systolic blood pressure measurements are obtained by tailcuff plethysmography and a sample of blood is obtained from the tail for determination of fasting plasma creatinine, insulin, blood glucose, triglycerides, and cholesterol. These measurements are subsequently repeated at 12, 18, and 24 weeks of age. […]
As one example, the PAS stained kidney sections are e.g. observed, examined, studied, and/or analyzed with light microscopy or other suitable means, while considering suitable observational criteria which includes, but is not limited to, a suitable glomerular sclerosis index, a suitable tubulointerstitial index, a suitable mesangial matrix index, and/or others. […]

canine cardiac tissue = conditions: cited from earlier work
[4] = carnitine treatment; cited from earlier work
Type II Diabetics = conditions: acute administration; cited from earlier work
obese Zucker rat = conditions: treated rats; cited from earlier work
[5] = cited from earlier work

CCOC(=O)[C@@]1(CCCCCCOc2ccc(Cl)cc2)CO1 [Etomoxir]
intramyocellular lipid (whole animal models): rise in intramyocellular lipid
whole body insulin resistance (whole animal models): increasing degrees of whole body insulin resistance

C[N+](C)(C)CC(O)CC(=O)[O-] (centres unmarked) [levocarnitine, 3-hydroxy-4-N trimethylammonium butyrate]
intramyocellular lipid concentration (obese Zucker rats [1]): decreases the intramyocellular lipid concentration
insulin sensitivity (obese Zucker rats [2]; obese Zucker rats with metabolic syndrome, 100 mg/kg bodyweight daily): improves insulin sensitivity
systemic insulin concentrations (obese Zucker rats [2]; obese Zucker rats): lower systemic insulin concentrations
kidney injury (obese Zucker rats [3]): reduction of kidney injury
elution of long chain acyl CoA esters (canine cardiac tissue): ability of levocarnitine to elute long chain acyl CoA esters has been demonstrated
urinary excretion of long chain carnitine esters [4]: increased urinary excretion of long chain carnitine esters
glucose storage and oxidation (Type II Diabetics): both glucose storage and oxidation
whole body glucose uptake (Type II Diabetics): significantly increased whole body glucose uptake

CN(CCOc1ccc(CC2SC(=O)NC2=O)cc1)c1ccccn1 (centres unmarked) [roziglitazone]
concentration of IMCL (obese Zucker rat): reduce the concentration of IMCL
insulin sensitivity (obese Zucker rat): marked improvement in insulin sensitivity
side effects ([5]; in vivo): weight gain

Cc1c(C)c2c(c(C)c1O)CCC(C)(COc1ccc(CC3SC(=O)NC3=O)cc1)O2 (centres unmarked) [troglitazone]
hepatotoxicity ([5]; removed from the market): excessive hepatotoxicity
